For 34 compounds, IC50 results are on record in patent publication US6967196B1, “Sulfonamide compounds and uses thereof” (Bristol-Myers Squibb Company, priority 1999, dated 2005).

The test system of one experiment is amyloid β production in transfected H4 (human neuroglioma) cells stably expressing APP constructs. In words: In vitro cell-based assay of inhibitors of amyloid β production (ELISA). The conditions noted are these: Homo sapiens, 16 h, transfected H4 cells stably expressing APP constructs; approximately 16 hours incubation; amyloid β in medium by ELISA; read-out: ACTIVITY (IC50, inhibition of amyloid β production). A digest of the protocol:
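Sandwich ELISA read-out: Aβ in conditioned medium captured via C-terminal epitope mAb, detected with N-terminus-specific rabbit polyclonal, quantified from a standard curve. Compounds 10-100 μM, ~16 h exposure. Active = ≥50% inhibition vs control without significant cytotoxicity; dose-response follows.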
What is called IC50 is the concentration at which inhibition is half-maximal. For `COC(=O)NCCC[C@@H](C)N(c1cc(Cl)ccc1Cl)S(=O)(=O)c1ccc(Cl)cc1` [Example 1131, 4-chloro-N-(2,5-dichlorophenyl)-N-[4-[[(methoxy)carbonyl]amino]-1-methylbutyl]benzenesulfonamide], the IC50 is 0.05 to 0.1 µM.

`CC(CCCN=[N+]=[N-])N(c1cc(Cl)ccc1Cl)S(=O)(=O)c1ccc(Cl)cc1` (stereo not shown) [Example 1138, 4-chloro-N-(2,5-dichlorophenyl)-N-[4-(azido)-1-methylbutyl]benzenesulfonamide]: the IC50 lay within 0.1 to 0.5 µM.

Take `C[C@H](CCCNC(=O)OC(C)(C)C)N(c1cc(Cl)ccc1Cl)S(=O)(=O)c1ccc(Cl)cc1` [Example 1145, 4-chloro-N-(2,5-dichlorophenyl)-N-[4-[[(1,1-dimethylethoxy)carbonyl]amino]-1-methylbutyl]benzenesulfonamide]: the IC50 is 0.1 to 0.5 µM.

In the case of `C[C@H](CCCNC(=O)c1ccccc1)N(c1cc(Cl)ccc1Cl)S(=O)(=O)c1ccc(Cl)cc1` [Example 1149, 4-chloro-N-(2,5-dichlorophenyl)-N-[4-[[(phenyl)carbonyl]amino]-1-methylbutyl]benzenesulfonamide], the 50% inhibitory concentration (IC50) was in the range of 0.1 to 0.5 µM.

Take `C[C@H](CCCNC(=O)OCc1ccccc1)N(c1cc(Cl)ccc1Cl)S(=O)(=O)c1ccc(Cl)cc1` [Example 1155, 4-chloro-N-(2,5-dichlorophenyl)-N-[4-[[(benzoxy)carbonyl]amino]-1-methylbutyl]benzenesulfonamide]: the IC50 is 0.1 to 0.5 µM.

In the case of `C[C@H](CCCN(c1cc(Cl)ccc1Cl)S(=O)(=O)c1ccc(Cl)cc1)N(c1cc(Cl)ccc1Cl)S(=O)(=O)c1ccc(Cl)cc1` [Example 1158, 4-chloro-N-(2,5-dichlorophenyl)-N-[4-[N-(2,5-dichlorophenyl)-N-[(4-chlorophenyl)sulfonyl]amino]-1(R)-methylbutyl]benzenesulfonamide], the half-maximal inhibitory concentration (IC50) is over 0.5 µM.

Still in this experiment, the particulars now being: Homo sapiens; transfected H4 cells stably expressing APP constructs; approximately 16 hours incubation; amyloid β in medium by ELISA; read-out: ACTIVITY (IC50, inhibition of amyloid β production).
In the case of `C[C@H](CCCNC(=O)Oc1ccccc1)N(c1cc(Cl)ccc1Cl)S(=O)(=O)c1ccc(Cl)cc1` [Example 1154, 4-chloro-N-(2,5-dichlorophenyl)-N-[4-[[(phenoxy)carbonyl]amino]-1-methylbutyl]benzenesulfonamide], the IC50 fell in the range of 0.1 to 0.5 µM.

Staying with this experiment, now noted: transfected H4 cells stably expressing APP constructs; approximately 16 hours incubation; amyloid β in medium by ELISA; read-out: ACTIVITY (IC50, inhibition of amyloid β production).
For the compound `C[C@H](CCCN1CCC(S(C)(=O)=O)CC1)N(c1cc(Cl)ccc1Cl)S(=O)(=O)c1ccc(Cl)cc1` [Example 1126, 4-chloro-N-(2,5-dichlorophenyl)-N-[4-[(4-methylsulfonyl)-1-piperidinyl]-1(R)-methylbutyl]benzenesulfonamide], the IC50 was in the range of 0.05 to 0.1 µM.

In the case of `CC(C)Oc1c(NCC[C@@H](C)N(c2cc(Cl)ccc2F)S(=O)(=O)c2ccc(Cl)cc2)c(=O)c1=O` [Example 1127, 4-chloro-N-(5-chloro-2-fluorophenyl)-N-[3-(2-isopropoxy-3,4-dioxo-1-cyclobutenyl)amine-1(R)-methylpropyl]benzenesulfonamide], the IC50 lay in the range of 0.05 to 0.1 µM.

`CC(C)Oc1c(NCCC[C@@H](C)N(c2cc(Cl)ccc2Cl)S(=O)(=O)c2ccc(Cl)cc2)c(=O)c1=O` [Example 1128, 4-chloro-N-(2,5-dichlorophenyl)-N-[4-(2-isopropoxy-3,4-dioxo-1-cyclobutenyl)amine-1(R)-methylbutyl]benzenesulfonamide]: the IC50 lay in the range of 0.05 to 0.1 µM.

Turning to `C[C@H](CCCNC(=O)[C@H](O)c1ccccc1)N(c1cc(Cl)ccc1Cl)S(=O)(=O)c1ccc(Cl)cc1` [Example 1129], the IC50 was 0.05 to 0.1 µM.

Consider `C[C@H](CCN1CCCC(S(C)(=O)=O)C1)N(c1cc(Cl)ccc1Cl)S(=O)(=O)c1ccc(Cl)cc1` (stereo partly drawn) [Example 1132, 4-chloro-N-(2,5-dichlorophenyl)-N-[3-[(3-methylsulfonyl)-1-piperidinyl]-1(R)-methylpropyl]benzenesulfonamide], for which the 50% inhibitory concentration (IC50) fell in the range of 0.05 to 0.1 µM.

As to `COC(=O)C1SCCN1CC[C@@H](C)N(c1cc(Cl)ccc1Cl)S(=O)(=O)c1ccc(Cl)cc1` (stereo partly drawn) [Example 1133, 4-chloro-N-(2,5-dichlorophenyl)-N-[3-(2-methoxycarbonyl-3-thiazolidinyl)-1(R)-methylpropyl]benzenesulfonamide], the IC50 lay in the range of 0.05 to 0.1 µM.

As for `CSC1CCN(CCC[C@@H](C)N(c2cc(Cl)ccc2Cl)S(=O)(=O)c2ccc(Cl)cc2)C1` (stereo partly drawn) [Example 1134, 4-chloro-N-(2,5-dichlorophenyl)-N-[4-[(3-methylthio)-1-pyrrolidinyl]-1(R)-methylbutyl]benzenesulfonamide], the half-inhibitory concentration (IC50) was 0.1 to 0.5 µM.

With `C[C@H](CCCN(CCCn1ccnc1)CC1CC1)N(c1cc(Cl)ccc1Cl)S(=O)(=O)c1ccc(Cl)cc1` [Example 1135], the half-inhibitory concentration (IC50) lay within 0.1 to 0.5 µM.

Regarding `C[C@H](CCCN1CCCC(S(C)(=O)=O)C1)N(c1cc(Cl)ccc1Cl)S(=O)(=O)c1ccc(Cl)cc1` (stereo partly shown) [Example 1136], the IC50 lay within 0.1 to 0.5 µM.

`CC(CC[C@@H](C)N(c1cc(Cl)ccc1Cl)S(=O)(=O)c1ccc(Cl)cc1)N1CCCC(S(C)(=O)=O)C1` (stereo partly shown) [Example 1140]: the IC50 fell in the range of 0.1 to 0.5 µM.

Regarding `CC(C)Oc1c(NCC[C@@H](C)N(c2cc(F)ccc2F)S(=O)(=O)c2ccc(Cl)cc2)c(=O)c1=O` [Example 1141, 4-chloro-N-(2,5-difluorophenyl)-N-[3-(2-isopropoxy-3,4-dioxo-1-cyclobutenyl)amine-1(R)-methylpropyl]benzenesulfonamide], the 50% inhibitory concentration (IC50) fell in the range of 0.1 to 0.5 µM.

As to `CSC1CCCN(CC[C@@H](C)N(c2cc(Cl)ccc2Cl)S(=O)(=O)c2ccc(Cl)cc2)C1` (stereo partly drawn) [Example 1142, 4-chloro-N-(2,5-dichlorophenyl)-N-[3-[(3-methylthio)-1-piperidinyl]-1(R)-methylpropyl]benzenesulfonamide], the IC50 is 0.1 to 0.5 µM.

In the case of `CSC1CCN(CCC[C@@H](C)N(c2cc(Cl)ccc2Cl)S(=O)(=O)c2ccc(Cl)cc2)C1` (stereo partly drawn) [Example 1144, 4-chloro-N-(2,5-dichlorophenyl)-N-[4-[(4-methylthio)-1-pyrrolidinyl]-1(R)-methylbutyl]benzenesulfonamide], the IC50 was 0.1 to 0.5 µM.

`C[C@H](CCN1CCC(S(C)(=O)=O)CC1)N(c1cc(Cl)ccc1Cl)S(=O)(=O)c1ccc(Cl)cc1` [Example 1146, 4-chloro-N-(2,5-dichlorophenyl)-N-[3-[(4-methylsulfonyl)-1-piperidinyl]-1(R)-methylpropyl]benzenesulfonamide]: the IC50 is 0.1 to 0.5 µM.

For `CSC1CCN(CC[C@@H](C)N(c2cc(Cl)ccc2Cl)S(=O)(=O)c2ccc(Cl)cc2)C1` (stereo partly drawn) [Example 1147, 4-chloro-N-(2,5-dichlorophenyl)-N-[3-[(3-methylthio)-1-pyrrolidinyl]-1(R)-methylpropyl]benzenesulfonamide], the IC50 was 0.1 to 0.5 µM.

In the case of `CSC1CCN(CCC[C@@H](C)N(c2cc(Cl)ccc2Cl)S(=O)(=O)c2ccc(Cl)cc2)C1` (stereo partly shown) [Example 1148], the IC50 is 0.1 to 0.5 µM.

For the compound `C[C@H](CCCCN1CCC(CS(C)(=O)=O)CC1)N(c1cc(Cl)ccc1Cl)S(=O)(=O)c1ccc(Cl)cc1` [Example 1150, 4-chloro-N-(2,5-dichlorophenyl)-N-[5-[[4-(methylsulfonyl)methyl]-1-piperidinyl]-1(R)-methylpentyl]benzenesulfonamide], the half-inhibitory concentration (IC50) lay in the range of 0.1 to 0.5 µM.

As to `C[C@H](CCN1CCCC(CS(C)(=O)=O)C1)N(c1cc(Cl)ccc1Cl)S(=O)(=O)c1ccc(Cl)cc1` (stereo partly drawn) [Example 1151, 4-chloro-N-(2,5-dichlorophenyl)-N-[3-[(3-(methylsulfonyl)methyl]-1-piperidinyl]-1(R)-methylpropyl)benzenesulfonamide], the 50% inhibitory concentration (IC50) was 0.1 to 0.5 µM.

Turning to `CC(CCCN)N(c1cc(Cl)ccc1Cl)S(=O)(=O)c1ccc(Cl)cc1` (stereo not shown) [Example 1152], the IC50 was 0.1 to 0.5 µM.

With `CSC1CCCN(CCC[C@@H](C)N(c2cc(Cl)ccc2Cl)S(=O)(=O)c2ccc(Cl)cc2)C1` (stereo partly drawn) [Example 1153, 4-chloro-N-(2,5-dichlorophenyl)-N-[4-[(3-methylthio)-1-piperidinyl]-1(R)-methylbutyl]benzenesulfonamide], the half-inhibitory concentration (IC50) was in the range of 0.1 to 0.5 µM.

For the compound `CSC1CCN(CC[C@@H](C)N(c2cc(Cl)ccc2Cl)S(=O)(=O)c2ccc(Cl)cc2)CC1` [Example 1156, 4-chloro-N-(2,5-dichlorophenyl)-N-[3-[(4-methylthio)-1-piperidinyl]-1(R)-methylpropyl]benzenesulfonamide], the IC50 was 0.1 to 0.5 µM.

In the case of `C[C@H](CCCN1CCC(CS(C)(=O)=O)CC1)N(c1cc(Cl)ccc1Cl)S(=O)(=O)c1ccc(Cl)cc1` [Example 1157, 4-chloro-N-(2,5-dichlorophenyl)-N-[4-[[4-(methylsulfonyl)methyl]-1-piperidinyl]-1(R)-methylbutyl)benzenesulfonamide], the IC50 was in the range of 0.1 to 0.5 µM.

On to `CSC1CCCN(CC[C@@H](C)N(c2cc(Cl)ccc2Cl)S(=O)(=O)c2ccc(Cl)cc2)C1` (stereo partly shown) [Example 1159], for which the half-inhibitory concentration (IC50) was over 0.5 µM.

With `CC[S+]([O-])CCC[C@@H](C)N(c1cc(Cl)ccc1F)S(=O)(=O)c1ccc(Cl)cc1` (stereo partly drawn) [Example 1160, 4-chloro-N-(5-chloro-2-fluorophenyl)-N-[1(R)-methyl-(4-ethylsulfinyl)butyl]benzenesulfonamide], the half-inhibitory concentration (IC50) is at most 0.025 µM.

As for `CC(C)S(=O)(=O)CCC[C@@H](C)N(c1cc(Cl)ccc1Cl)S(=O)(=O)c1ccc(Cl)cc1` [Example 1161], the concentration for half-maximal inhibition (IC50) was at most 0.025 µM.

As to `C[C@H](CCCS(C)(=O)=O)N(c1cc(Cl)ccc1Cl)S(=O)(=O)c1ccc(Cl)cc1` [Example 1162, 4-chloro-N-[2,5-dichlorophenyl]-N-[1(R)-methyl-(4-methylsulfonyl]butyl]benzenesulfonamide], the half-maximal inhibitory concentration (IC50) is at most 0.025 µM.

`CCS(=O)(=O)CCC[C@@H](C)N(c1cc(Cl)ccc1F)S(=O)(=O)c1ccc(Cl)cc1` [Example 1163, 4-chloro-N-[5-chloro-2-fluorophenyl]-N-[1(R)-methyl-(4-ethylsulfonyl)butyl]benzenesulfonamide]: the IC50 was at most 0.025 µM.
